The test system of test [1] is Respiratory syncytial virus. Nature of the test: Antiviral activity against respiratory syncytial virus in HEp-2 human lung carcinoma cell line. It is filed as functional, organism-based.
Another test deals with HEp-2. Nature of the test: Concentration that causes cytotoxicity to uninfected HEp-2 human lung carcinoma cell line. It is filed as functional.
For test [2], the system named is Respiratory syncytial virus. Briefly: Antiviral activity against respiratory syncytial virus in HEp-2 human lung carcinoma cell line; […]. The format is functional, organism-based.

pEC50: −log10 of the molar value. Bounds are passed on as bounds.

This passage reports EC50 and CC50 results from ChEMBL document CHEMBL1136078, “Fundamental structure-activity relationships associated with a new structural class of respiratory syncytial virus inhibitor” (Bioorg Med Chem Lett, 2003).

Regarding `N#CCCn1c(Cn2nnc3ccccc32)nc2ccccc21`, in test [1], the pEC50 (commonly −log10 of the EC50, conventionally taken in molar units) is 5.57. The CC50 (commonly the concentration giving 50% cytotoxicity) in the test with HEp-2 amounted to 49.3 µM.
Regarding `CC(C)n1c(Cn2nc3ccccc3n2)nc2ccccc21`, the pEC50 in test [1] is 4.29. The molecule further came in with a CC50 in the test on HEp-2 of 58 µM.
The molecule `CC(C)n1c(Cn2nnc3ccccc32)nc2ccccc21` showed a pEC50 in test [1] of 4.81. The CC50 in the test with HEp-2 worked out at 129 µM.
Turning to `COC(=O)Cn1c(Cn2nnc3ccccc32)nc2ccccc21`, it took 374 µM to reach half-maximal cytotoxicity with HEp-2 (CC50). For the same molecule, in test [2], the EC50 entry is “Not Active”.
Turning to `CCN(CC)CCCn1c(Cn2nnc3ccccc32)nc2ccccc21`, the EC50 entry in test [2] is listed as “Not Active”.
`OC(Cn1c(Cn2nnc3ccccc32)nc2ccccc21)c1ccccc1` (stereo not given): the pEC50 in test [1] is 6.23. The molecule further registered a CC50 in the test on HEp-2 of 37.6 µM.
With `c1ccc2[nH]c(Cn3nnc4ccccc43)nc2c1`, the pEC50 in test [1] is 4.51. Also, the CC50 in the test on HEp-2 is 164 µM.
Take `OCCn1c(Cn2nnc3ccccc32)nc2ccccc21`: the pEC50 in test [1] was 5.11. For the same molecule, in the test on HEp-2, the midpoint of cytotoxicity, the CC50, lay at 205 µM.
In test [1], `CC(C)(C)OC(=O)CCn1c(Cn2nnc3ccccc32)nc2ccccc21` showed a pEC50 of 5.37. This molecule returned a CC50 with HEp-2 of 9.98 µM.
Taken in the same sequence, the figures for `CN(C)CCCn1c(Cn2nc3ccccc3n2)nc2ccccc21` were 5.44 and 182 µM.
Take `CN(C)CCCn1c(Cn2nnc3ccccc32)nc2ccccc21`: the pEC50 in test [1] was 5.96. Further, it took 197 µM to reach half-maximal cytotoxicity with HEp-2 (CC50).
Taken in the same sequence, the figures for `CC(C)Cn1c(Cn2nc3ccccc3n2)nc2ccccc21` were 4.32 and 106 µM.
Taken in the same sequence, the figures for `C[S+]([O-])CCn1c(Cn2nnc3ccccc32)nc2ccccc21` (stereo not given) were 6.37 and 56.4 µM.
For `CC(C)CCn1c(Cn2nnc3ccccc32)nc2ccccc21`, the pEC50 in test [1] is 7.00. For the same molecule, half-maximal cytotoxicity in the test with HEp-2 (CC50) was put at 39.9 µM.
Taken in the same sequence, the figures for `NC(=O)CCn1c(Cn2nnc3ccccc32)nc2ccccc21` were 5.68 and 4.28 µM.
On to `CC(C)CCn1c(Cn2nc3ccccc3n2)nc2ccccc21`, for which the pEC50 in test [1] was 6.36. In addition, in the test on HEp-2, the CC50 worked out at 13.5 µM.
In the case of `O=C(Cn1c(Cn2nnc3ccccc32)nc2ccccc21)c1ccccc1`, in test [1], the pEC50 is 5.66. In addition, the CC50 with HEp-2 was 18 µM.
Molecule `CC(C)CCCn1c(Cn2nnc3ccccc32)nc2ccccc21` showed a pEC50 in test [1] of 6.72. This molecule gave a CC50 with HEp-2 of 24 µM.
For the molecule `c1ccc(CCn2c(Cn3nnc4ccccc43)nc3ccccc32)cc1`, the pEC50 in test [1] was 6.11. The CC50 with HEp-2 came to 2.6 µM.
In turn, `CC(C)=CCn1c(Cn2nnc3ccccc32)nc2ccccc21` gave a pEC50 in test [1] of 5.48. In the test with HEp-2, this molecule showed a CC50 of 102 µM.
Taken in the same sequence, the figures for `c1ccc(Cn2c(Cn3nnc4ccccc43)nc3ccccc32)cc1` were 4.98 and 9 µM.
For the molecule `CCN(CC)OC(=O)Cn1c(Cn2nc3ccccc3n2)nc2ccccc21`, in test [2], the EC50 entry is recorded as “Not Active”.
The molecule `CC(O)CCn1c(Cn2nnc3ccccc32)nc2ccccc21` (stereo not given) had a pEC50 in test [1] of 6.92. The molecule also yielded a CC50 in the test with HEp-2 of more than 309 µM.
Take `CCCCn1c(Cn2nnc3ccccc32)nc2ccccc21`: the pEC50 in test [1] was 7.18. For the same molecule, in the test with HEp-2, the CC50 was found to be 12 µM.
Molecule `CC(C)Cn1c(Cn2nnc3ccccc32)nc2ccccc21` had a CC50 in the test with HEp-2 of 15.5 µM. Moreover, in test [2], the EC50 result is recorded as “Not Active”.
With `CC(=O)CCn1c(Cn2nnc3ccccc32)nc2ccccc21`, the pEC50 in test [1] is 6.28. In addition, the CC50 with HEp-2 came out at 59 µM.
In the test on HEp-2, `CCN(CC)OC(=O)Cn1c(Cn2nnc3ccccc32)nc2ccccc21` registered a CC50 of 250 µM. The EC50 entry in test [2] was “Not Active”.
In test [1], `CSCCn1c(Cn2nnc3ccccc32)nc2ccccc21` had a pEC50 of 6.52. The same molecule registered a CC50 with HEp-2 of 166 µM.
In test [1], `CS(=O)(=O)CCn1c(Cn2nnc3ccccc32)nc2ccccc21` showed a pEC50 of 6.60. Further, the CC50 with HEp-2 was found to be 337 µM.
Taken in the same sequence, the figures for `O=C(O)CCn1c(Cn2nnc3ccccc32)nc2ccccc21` were 4.74 and 184 µM.
`O=C(O)Cn1c(Cn2nnc3ccccc32)nc2ccccc21`: in the test with HEp-2, the CC50 came to 303 µM. Moreover, the EC50 entry in test [2] is “Not Active”.
